Experimental data taken from PubChem BioAssay (NCI).
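How tested: cells in 96-well plates exposed to compound for 48 hours at five concentrations. GI50 marks 50% less growth. TGI denotes the concentration required for complete inhibition of growth.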

What was measured:
Assay in all cases: DTP human tumour cell line panel, 48 h
RPMI-8226 leukemia = test system: RPMI-8226 leukemia
SNB-19 CNS = test system: SNB-19 CNS
M14 melanoma = test system: M14 melanoma
SK-MEL-28 melanoma = test system: SK-MEL-28 melanoma
SN12C renal = test system: SN12C renal
NCI-H23 lung = test system: NCI-H23 lung
U251 CNS = test system: U251 CNS
CAKI-1 renal = test system: CAKI-1 renal
SW-620 colon = test system: SW-620 colon
SF-268 CNS = test system: SF-268 CNS

Row | Compound | TGI (RPMI-8226 leukemia) [µM] | TGI (SNB-19 CNS) [µM] | TGI (M14 melanoma) [µM] | TGI (SK-MEL-28 melanoma) [µM] | TGI (SN12C renal) [µM] | TGI (NCI-H23 lung) [µM] | TGI (U251 CNS) [µM] | TGI (CAKI-1 renal) [µM] | TGI (SW-620 colon) [µM] | TGI (SF-268 CNS) [µM] | GI50 (RPMI-8226 leukemia) [µM] | GI50 (SNB-19 CNS) [µM] | GI50 (M14 melanoma) [µM] | GI50 (SK-MEL-28 melanoma) [µM] | GI50 (SN12C renal) [µM] | GI50 (NCI-H23 lung) [µM] | GI50 (U251 CNS) [µM] | GI50 (CAKI-1 renal) [µM] | GI50 (SW-620 colon) [µM] | GI50 (SF-268 CNS) [µM]
1 | CC1S(=O)(=O)OCCOS1(=O)=O | > 100 | > 100 | > 100 | > 100 | > 100 | > 100 | > 100 | > 100 | > 100 | > 100 | – | – | – | – | – | – | – | – | – | –
2 | Cc1cc2c3ccccc3n(C)c2c2c1C(=O)C=CC2=O | 5.47 | 73 | 31.9 | 42.7 | 35.9 | 27.4 | 32.6 | 28.9 | 32.8 | 39.1 | – | – | – | – | – | – | – | – | – | –
3 | Fc1ccc2[nH]c3c(NCCCN4CCOCC4)ncnc3c2c1 | > 100 | > 100 | > 100 | > 100 | > 100 | > 100 | > 100 | > 100 | > 100 | > 100 | 31.4 | > 100 | 36 | 70.4 | 77.8 | 51.4 | 48.8 | 34.2 | 40.8 | 88.2
4 | NNC(=O)CCC(=O)NC1C2CC3CC(C2)CC1C3 (centres undefined) | > 100 | > 100 | > 100 | > 100 | > 100 | > 100 | > 100 | > 100 | > 100 | > 100 | – | – | – | – | – | – | – | – | – | –
5 | CC[C@H](CC#N)OC(=O)N[C@@H](C)c1cccc(NC(=O)Nc2ccc(-c3cnco3)c(OC)c2)c1 | 19.4 | > 100 | 30.5 | 21.8 | 79.3 | 43.2 | 44.8 | 0.396 | 40.6 | 51.3 | 0.152 | 0.125 | 0.0753 | 0.0505 | 0.111 | 0.16 | 0.0406 | 0.0696 | 0.0229 | 0.074
6 | COc1ccc(NC(=O)c2cc(OC)c(OC)c(OC)c2)cc1 | > 100 | > 100 | > 100 | 94.4 | > 100 | > 91.9 | > 100 | > 100 | > 100 | > 94.8 | – | – | – | – | – | – | – | – | – | –
7 | CO/N=C(\C)c1ccc(Nc2cc(-c3ccccc3)nc3c(O)cccc23)cc1 | 37 | – | 29.6 | 84.8 | 30.6 | 30.6 | 27.2 | 35.5 | 40 | – | 15.8 | – | 14.6 | 25.5 | 16 | 14.9 | 13.3 | 19.4 | 13.6 | –
8 | CCCCCCCCCCCC[n+]1ccc(CCCCCCCCC)cc1 | – | – | – | 2.86 | – | 1.79 | – | 2.93 | – | 2.94 | – | – | – | 1.31 | – | 0.39 | – | 1.51 | – | 1.38
9 | CCC12CCCC(=O)N1C(CO)C(c1ccccc1)O2 (centres undefined) | > 100 | > 100 | – | > 100 | > 100 | > 100 | > 100 | > 100 | > 100 | > 100 | – | – | – | – | – | – | – | – | – | –
10 | Cn1nc(-c2ccccc2)c(C(=O)/C=C/c2ccccc2)c(N2CCOCC2)c1=O | 59.1 | – | 52.6 | – | 59.2 | 45.1 | 29.4 | – | > 100 | 32.6 | – | – | – | – | – | – | – | – | – | –
11 | N[C@H](C(=O)O)[C@H](Cl)CC(=O)O | – | > 100 | > 100 | > 100 | > 100 | > 100 | > 100 | > 100 | > 100 | > 100 | – | – | – | – | – | – | – | – | – | –
12 | COc1ccc2c(c1)OC(N(C(C)=O)C(C)=O)=C(C#N)C2c1ccc(F)cc1 (centres undefined) | 27.1 | > 100 | > 100 | > 100 | > 100 | > 100 | 54.8 | – | > 100 | > 100 | 3.18 | 2.91 | 0.482 | 9.97 | 6.48 | 4.44 | 1.82 | – | 0.553 | 9.47
13 | CC1=C(O)C(=O)C2C(=O)C1C(C)C2c1ccc(Cl)cc1 (centres undefined) | > 100 | > 100 | > 100 | > 100 | – | > 100 | > 100 | > 100 | > 100 | > 100 | – | – | – | – | – | – | – | – | – | –
14 | C[C@@H]1COCCN1c1cc(C2(S(C)(=N)=O)CC2)nc(-c2ccnc3[nH]ccc23)n1 (some centres undefined) | 36.1 | 42.2 | – | 25.8 | 89.6 | 34.3 | 63.9 | 25.5 | 95.1 | 39.6 | 5.73 | 3.92 | – | 5.59 | 4.77 | 2.62 | 5.46 | 2.34 | 8.36 | 6.17
15 | COc1cc(/C=C/C(=O)c2sc(Nc3ccccc3)nc2C)ccc1O | > 100 | > 100 | – | > 100 | > 100 | > 100 | > 100 | > 100 | > 100 | > 100 | – | – | – | – | – | – | – | – | – | –
16 | CC/C=C\C/C=C\C/C=C\CCCCCCCC(=O)OCC | > 100 | – | > 100 | > 100 | > 100 | > 100 | > 100 | > 100 | > 100 | > 100 | – | – | – | – | – | – | – | – | – | –
17 | Cc1nc2sc(C(=O)Nc3ccccc3)c(N)c2cc1C(=O)/C=C/c1ccccc1 | 5.2 | 4.17 | 4.49 | – | 4.45 | 5.44 | 3.16 | 3.74 | 4.49 | 9.93 | 1.67 | 1.89 | 1.76 | – | 2.02 | 2.2 | 1.71 | 1.87 | 1.74 | 2.94
18 | CN(C)CCCN1CCc2c([nH]c3ccccc23)C1c1cccnc1 (centres undefined) | > 100 | > 100 | > 100 | > 100 | > 100 | > 100 | > 100 | > 100 | > 100 | – | – | – | – | – | – | – | – | – | – | –
19 | CC(=O)Oc1ccc(O)c(O)c1C/C=C(\C)CC/C=C(\C)CC/C=C(\C)CCC=C(C)C | – | 2.8 | 4.98 | 2.19 | 0.868 | 1.47 | 1.28 | 8.03 | 1.21 | 2.18 | – | – | – | – | – | – | – | – | – | –
20 | Cc1cc(=O)oc2cc3c(cc12)Oc1ccccc1O3 | > 100 | > 100 | > 100 | > 100 | > 100 | > 100 | > 100 | – | > 100 | > 100 | – | – | – | – | – | – | – | – | – | –
21 | O=C(O)c1cc(=O)c2[nH]c3ccccc3c2s1 | > 100 | > 100 | > 100 | > 100 | > 100 | > 100 | – | > 100 | > 100 | > 100 | – | – | – | – | – | – | – | – | – | –
22 | COc1cccc(C2c3cc4c(cc3OC(O)(CO)C2C(=O)O)OCO4)c1 (centres undefined) (tested in a mixture with another compound) | > 100 | – | > 100 | 79.8 | > 100 | > 100 | 62.2 | – | > 100 | > 100 | – | – | – | – | – | – | – | – | – | –
23 | Nc1nc2c(c(=O)[nH]1)CN(c1ccc(S(N)(=O)=O)cc1)CN2 | > 100 | > 100 | > 100 | > 100 | > 100 | – | > 100 | > 100 | > 100 | > 100 | – | – | – | – | – | – | – | – | – | –
24 | O=C1CC[C@@H](S(=O)(=O)c2ccccc2)[C@@H](/C=C/c2ccccc2)O1 | > 100 | > 100 | > 100 | > 100 | > 100 | > 100 | > 100 | – | > 100 | – | – | – | – | – | – | – | – | – | – | –
25 | COc1ccc(O)c(C#N)c1C#N | > 100 | > 100 | > 100 | – | > 100 | > 100 | > 100 | > 100 | > 100 | > 100 | – | – | – | – | – | – | – | – | – | –
26 | Cn1ccnc1C(=O)/C=C/c1ccc(CC(=O)Nc2ccccc2)cc1 | 9.7 | 11.9 | 10.8 | 17.8 | 14.3 | 11.3 | 5.27 | – | 8.81 | 13.9 | 1.45 | 1.9 | 4.55 | 5.69 | 3.84 | 3.24 | 1.57 | – | 2.75 | 3.72
27 | CCOC(=O)NN1C(=O)C(=P(c2ccccc2)(c2ccccc2)c2ccccc2)C(C(=O)OCC)=C1C | > 100 | > 100 | > 100 | – | > 100 | > 100 | > 100 | > 100 | > 100 | > 100 | – | – | – | – | – | – | – | – | – | –
28 | CSc1nc2c(nc(N)n2C2OCC(O)C(O)C2O)c(=O)n1C (centres undefined) | – | > 100 | > 100 | > 100 | > 100 | > 100 | > 100 | > 100 | > 100 | > 100 | – | – | – | – | – | – | – | – | – | –
29 | COc1cccc(C(=O)C2C(=O)N(C)CCc3ccccc32)c1OC (centres undefined) | > 100 | > 100 | > 100 | > 100 | > 100 | > 100 | > 100 | > 100 | > 100 | – | – | – | – | – | – | – | – | – | – | –
30 | COc1cc(CNc2ccc(C(C)C)cc2)cc(OC)c1OC | 38.2 | 99.1 | – | 72.7 | 31.4 | 45.5 | 29.7 | 45.1 | – | > 100 | – | – | – | – | – | – | – | 16.9 | – | –
